For 11 compounds, remaining binding, GI50 and inhibition results are on record in US12240844B2 (Voronoi, Inc., priority 2019, dated 2025).

The target in one experiment is T1, CLK2 (Homo sapiens, UniProt P49760).
T1 construct: purchased DiscoverX
Put plainly: scanMAX Kinase panel (DiscoverX), % control. Format: binding. The settings on record: <35% = active. As for the experimental part:
(§1) Specifically, for Examples 162, 160, 105, 217, 205, 96, 207, 184, 206, 221, 238, and 237 selected among the example compounds of the present invention, it was decided to measure enzyme (kinase) selectivity by DiscoverX, and the experiment was conducted using a panel for scanMAX™ Kinase analysis. At this time, the concentration of the drug treated with the enzyme was 1 uM in DMSO, the control percentage (% control) was determined in the same way as in Equation 1 below, and the results were shown in Table 6 below. [formula] Here, the positive control refers to a compound showing a control percentage of 0%, and the negative control is DMSO, indicating a control percentage of 100%. Also, in the enzyme selectivity of the present invention, if the control percentage for each enzyme was <35% (i.e., less than 35%), it was determined to have activity against the relevant enzyme.

The next experiment deals with T2, CLK3 (Homo sapiens, UniProt P49761).
T2 construct: purchased DiscoverX
T2 sequence (P49761 whole entry): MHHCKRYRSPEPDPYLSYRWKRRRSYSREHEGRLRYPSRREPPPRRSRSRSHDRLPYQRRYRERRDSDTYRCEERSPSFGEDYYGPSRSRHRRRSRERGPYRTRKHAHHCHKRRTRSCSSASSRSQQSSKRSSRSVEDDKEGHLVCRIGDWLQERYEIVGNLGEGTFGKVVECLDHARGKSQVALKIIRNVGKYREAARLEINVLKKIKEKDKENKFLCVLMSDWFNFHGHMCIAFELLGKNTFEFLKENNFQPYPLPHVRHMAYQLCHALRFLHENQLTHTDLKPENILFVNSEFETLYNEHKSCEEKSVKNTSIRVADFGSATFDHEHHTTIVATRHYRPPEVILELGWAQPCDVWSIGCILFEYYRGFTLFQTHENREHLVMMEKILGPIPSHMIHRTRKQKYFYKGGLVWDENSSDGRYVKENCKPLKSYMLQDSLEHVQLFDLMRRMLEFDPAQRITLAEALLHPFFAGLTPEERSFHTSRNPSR
Put plainly: scanMAX Kinase panel (DiscoverX), % control. Format: binding. The settings on record: <35% = active. As for the experimental part: as §1

Another experiment addresses T3, ALK (L1196M) (Homo sapiens, UniProt Q9UM73, L1196M).
T3 construct: purchased DiscoverX
Put plainly: scanMAX Kinase panel (DiscoverX), % control. Format: binding. The settings on record: <35% = active. As to the method:
as §1

In the next experiment the target is T4, DYRK1B (Homo sapiens, UniProt Q9Y463).
T4 construct: purchased DiscoverX
Put plainly: scanMAX Kinase panel (DiscoverX), % control. Format: binding. The settings on record: <35% = active. As for the experimental part:
as §1

A further experiment addresses T5, MYLK (Homo sapiens, UniProt Q15746).
T5 construct: purchased DiscoverX
Put plainly: scanMAX Kinase panel (DiscoverX), % control. Format: binding. The note with it: <35% = active. As to the method: as §1

The next experiment concerns the target T6, ALK (Homo sapiens, UniProt Q9UM73).
T6 construct: purchased DiscoverX
Put plainly: scanMAX Kinase panel (DiscoverX), % control. Format: binding. The note with it: <35% = active. As to the method:
as §1

The next experiment concerns the target T7, DYRK2 (Homo sapiens, UniProt Q92630).
T7 construct: purchased DiscoverX
T7 sequence (Q92630 1-601): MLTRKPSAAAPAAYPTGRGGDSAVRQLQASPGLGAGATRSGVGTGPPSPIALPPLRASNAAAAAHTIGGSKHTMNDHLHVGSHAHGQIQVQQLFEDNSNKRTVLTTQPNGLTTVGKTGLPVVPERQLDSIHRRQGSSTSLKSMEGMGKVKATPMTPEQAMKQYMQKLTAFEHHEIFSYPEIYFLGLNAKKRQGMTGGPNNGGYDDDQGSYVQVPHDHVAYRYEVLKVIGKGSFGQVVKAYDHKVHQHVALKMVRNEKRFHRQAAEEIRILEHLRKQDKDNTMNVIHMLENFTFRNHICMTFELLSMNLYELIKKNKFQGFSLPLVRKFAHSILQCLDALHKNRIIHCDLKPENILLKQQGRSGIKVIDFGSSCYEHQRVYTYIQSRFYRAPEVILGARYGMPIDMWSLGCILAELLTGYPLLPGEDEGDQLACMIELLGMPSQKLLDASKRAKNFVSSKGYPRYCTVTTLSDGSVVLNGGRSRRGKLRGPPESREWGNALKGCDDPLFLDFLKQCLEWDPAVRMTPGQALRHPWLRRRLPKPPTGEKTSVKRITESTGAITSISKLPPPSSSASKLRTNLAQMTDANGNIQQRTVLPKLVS
Put plainly: scanMAX Kinase panel (DiscoverX), % control. Format: binding. The settings on record: <35% = active. As to the method: as §1

The test system of another experiment is SHP-77. Put plainly: SHP-77 cancer cell proliferation inhibition (Cell Titer-Glo). The settings on record: Homo sapiens, SHP77, SHP-77 small cell lung cancer cell line, 72 hours. Format: cell-based. In short, it runs like this: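 GI50 comes from CellTiter-Glo luminescence, read 10 min after reagent addition at RT, following 72 h compound treatment. Eleven concentrations were used (⅓ steps, highest 10 μM final) on 2000 cells/well. MDA-MB-231 and MDA-MB-468 were grown in DMEM, SHP-77 in RPMI.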
For orientation: Cellular ATP, detected with luciferase, serves as a proxy for viable cell number.

The subject of another experiment is IL-6. Put plainly: IL-6 secretion inhibition in LPS-treated THP-1 cells (ELISA). Format: cell-based. The settings on record: Homo sapiens, compound 0.5 μM, LPS 500 ng/ml, 24 hours, read-out: THP1/IL6 (% inhib). In short, it runs like this: (§2)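 Human monocytic THP-1 cells were pre-cultured 16 h at 37° C., then treated with compound at 0.5 μM final, followed by LPS at 500 ng/ml final. After 24 h, IL-6 and TNF-α in culture supernatant were quantified by ELISA with absorbance read at 450 nm.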

A further experiment has as its system TNF-α. Put plainly: TNF-α secretion inhibition in LPS-treated THP-1 cells (ELISA). Format: cell-based. The settings on record: Homo sapiens, compound 0.5 μM, LPS 500 ng/ml, 24 hours, read-out: THP-1/TNF-a (% inhib). In short, it runs like this:
as §2
(An ELISA detects its analyte on a solid surface through an enzyme-linked reagent.)

Structures are written as SMILES.

T3 sequence (Q9UM73 19-1620 L1196M): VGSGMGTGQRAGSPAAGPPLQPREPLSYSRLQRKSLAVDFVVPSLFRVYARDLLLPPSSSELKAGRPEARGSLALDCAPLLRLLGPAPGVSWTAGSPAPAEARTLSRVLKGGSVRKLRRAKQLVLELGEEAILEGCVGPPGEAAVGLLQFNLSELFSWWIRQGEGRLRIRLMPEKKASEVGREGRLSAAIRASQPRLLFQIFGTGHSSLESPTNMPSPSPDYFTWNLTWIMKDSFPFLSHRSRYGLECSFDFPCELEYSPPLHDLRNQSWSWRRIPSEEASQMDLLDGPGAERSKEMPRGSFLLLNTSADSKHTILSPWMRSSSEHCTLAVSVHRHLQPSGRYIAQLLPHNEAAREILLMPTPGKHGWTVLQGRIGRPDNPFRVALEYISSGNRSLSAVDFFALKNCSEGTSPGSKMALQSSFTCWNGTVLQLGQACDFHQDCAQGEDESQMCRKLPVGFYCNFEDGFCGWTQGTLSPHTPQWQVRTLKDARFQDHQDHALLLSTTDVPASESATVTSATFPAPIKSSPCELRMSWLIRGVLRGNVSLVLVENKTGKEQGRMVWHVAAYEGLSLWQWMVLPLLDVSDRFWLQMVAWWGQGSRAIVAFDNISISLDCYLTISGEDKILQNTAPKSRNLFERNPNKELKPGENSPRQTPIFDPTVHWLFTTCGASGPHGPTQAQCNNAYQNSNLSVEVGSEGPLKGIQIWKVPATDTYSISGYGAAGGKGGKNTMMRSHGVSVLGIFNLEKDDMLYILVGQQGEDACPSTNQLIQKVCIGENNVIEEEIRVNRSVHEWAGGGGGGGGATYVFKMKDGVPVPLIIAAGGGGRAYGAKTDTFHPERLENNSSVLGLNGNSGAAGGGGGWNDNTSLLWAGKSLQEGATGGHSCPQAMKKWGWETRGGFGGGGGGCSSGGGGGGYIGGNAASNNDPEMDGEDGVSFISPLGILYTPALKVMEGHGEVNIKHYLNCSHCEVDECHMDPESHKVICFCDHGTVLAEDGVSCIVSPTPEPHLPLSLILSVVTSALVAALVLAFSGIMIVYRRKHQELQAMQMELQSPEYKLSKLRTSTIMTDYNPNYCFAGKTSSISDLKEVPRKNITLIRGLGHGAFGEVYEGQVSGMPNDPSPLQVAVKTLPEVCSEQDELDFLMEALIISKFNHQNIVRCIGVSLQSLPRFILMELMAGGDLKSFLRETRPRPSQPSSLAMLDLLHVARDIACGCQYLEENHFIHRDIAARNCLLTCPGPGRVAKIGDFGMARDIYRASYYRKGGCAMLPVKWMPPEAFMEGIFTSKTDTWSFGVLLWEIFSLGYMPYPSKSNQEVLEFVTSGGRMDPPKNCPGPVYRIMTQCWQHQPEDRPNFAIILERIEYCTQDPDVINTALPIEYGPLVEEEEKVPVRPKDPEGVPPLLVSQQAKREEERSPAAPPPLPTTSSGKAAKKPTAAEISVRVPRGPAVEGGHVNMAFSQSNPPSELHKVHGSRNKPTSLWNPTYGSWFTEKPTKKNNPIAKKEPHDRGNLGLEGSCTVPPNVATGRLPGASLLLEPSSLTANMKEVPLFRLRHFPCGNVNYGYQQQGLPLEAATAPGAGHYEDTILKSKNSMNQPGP
T5 sequence (Q15746 whole entry): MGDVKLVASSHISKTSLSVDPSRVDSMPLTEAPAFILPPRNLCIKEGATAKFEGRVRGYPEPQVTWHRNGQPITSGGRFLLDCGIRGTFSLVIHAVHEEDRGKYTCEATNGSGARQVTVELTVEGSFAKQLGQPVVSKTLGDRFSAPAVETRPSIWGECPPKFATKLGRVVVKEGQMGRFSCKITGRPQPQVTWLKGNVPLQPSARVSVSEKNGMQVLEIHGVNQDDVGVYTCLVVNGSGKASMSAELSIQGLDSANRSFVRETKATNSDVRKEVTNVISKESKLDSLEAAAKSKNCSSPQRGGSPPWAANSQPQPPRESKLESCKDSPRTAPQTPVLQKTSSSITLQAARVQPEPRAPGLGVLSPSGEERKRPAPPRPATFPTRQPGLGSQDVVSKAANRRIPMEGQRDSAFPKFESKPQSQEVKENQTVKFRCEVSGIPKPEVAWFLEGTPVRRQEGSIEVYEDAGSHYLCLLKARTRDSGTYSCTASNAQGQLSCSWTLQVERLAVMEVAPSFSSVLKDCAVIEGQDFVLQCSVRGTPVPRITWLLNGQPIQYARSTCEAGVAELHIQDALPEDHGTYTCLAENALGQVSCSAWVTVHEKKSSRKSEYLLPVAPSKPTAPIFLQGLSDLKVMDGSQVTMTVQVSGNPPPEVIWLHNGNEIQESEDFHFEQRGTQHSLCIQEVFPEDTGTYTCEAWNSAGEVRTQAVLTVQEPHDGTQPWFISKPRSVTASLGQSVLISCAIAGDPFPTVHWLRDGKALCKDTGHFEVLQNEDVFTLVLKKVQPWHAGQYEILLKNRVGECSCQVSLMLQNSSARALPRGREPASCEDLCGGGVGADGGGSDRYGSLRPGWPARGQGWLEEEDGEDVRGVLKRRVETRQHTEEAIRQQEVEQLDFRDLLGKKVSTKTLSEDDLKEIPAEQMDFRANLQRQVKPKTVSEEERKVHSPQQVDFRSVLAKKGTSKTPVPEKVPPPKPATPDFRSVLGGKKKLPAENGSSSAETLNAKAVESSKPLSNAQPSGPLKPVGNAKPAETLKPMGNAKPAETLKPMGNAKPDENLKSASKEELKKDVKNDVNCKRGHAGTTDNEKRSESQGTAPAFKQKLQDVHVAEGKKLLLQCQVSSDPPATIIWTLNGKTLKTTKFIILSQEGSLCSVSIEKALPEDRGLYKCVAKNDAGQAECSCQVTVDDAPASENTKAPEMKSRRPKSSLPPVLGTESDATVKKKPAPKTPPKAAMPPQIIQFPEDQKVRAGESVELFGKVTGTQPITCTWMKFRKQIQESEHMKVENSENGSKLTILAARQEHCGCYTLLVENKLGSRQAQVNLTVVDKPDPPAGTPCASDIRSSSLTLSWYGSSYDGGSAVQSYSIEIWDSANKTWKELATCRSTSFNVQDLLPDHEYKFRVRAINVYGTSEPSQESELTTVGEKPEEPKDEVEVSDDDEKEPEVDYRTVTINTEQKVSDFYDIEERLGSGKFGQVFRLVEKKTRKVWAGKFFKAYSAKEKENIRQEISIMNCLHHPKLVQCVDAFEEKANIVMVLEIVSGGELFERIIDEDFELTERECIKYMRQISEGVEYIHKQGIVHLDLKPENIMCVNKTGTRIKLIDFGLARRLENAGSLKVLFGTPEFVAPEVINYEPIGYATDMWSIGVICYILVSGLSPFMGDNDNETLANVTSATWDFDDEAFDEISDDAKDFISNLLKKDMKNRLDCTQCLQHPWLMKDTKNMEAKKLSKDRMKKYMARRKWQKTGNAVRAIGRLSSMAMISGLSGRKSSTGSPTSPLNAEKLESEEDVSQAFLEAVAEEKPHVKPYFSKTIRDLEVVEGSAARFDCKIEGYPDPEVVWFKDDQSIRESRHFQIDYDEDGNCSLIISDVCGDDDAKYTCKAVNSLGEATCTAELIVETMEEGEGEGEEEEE
T1 sequence (P49760 whole entry): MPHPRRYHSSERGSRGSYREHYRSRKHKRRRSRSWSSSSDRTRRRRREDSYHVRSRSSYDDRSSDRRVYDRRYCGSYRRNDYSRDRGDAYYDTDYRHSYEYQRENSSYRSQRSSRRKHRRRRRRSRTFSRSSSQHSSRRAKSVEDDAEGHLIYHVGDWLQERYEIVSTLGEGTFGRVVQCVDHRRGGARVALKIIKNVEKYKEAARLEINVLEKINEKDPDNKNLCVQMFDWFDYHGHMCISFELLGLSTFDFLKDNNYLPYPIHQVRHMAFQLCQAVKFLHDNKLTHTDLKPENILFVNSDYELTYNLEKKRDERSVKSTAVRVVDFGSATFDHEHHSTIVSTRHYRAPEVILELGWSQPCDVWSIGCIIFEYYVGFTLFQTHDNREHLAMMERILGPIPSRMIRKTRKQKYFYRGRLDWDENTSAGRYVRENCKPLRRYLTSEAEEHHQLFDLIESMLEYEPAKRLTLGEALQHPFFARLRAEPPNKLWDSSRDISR
T6 sequence (Q9UM73 19-1620): as the sequence (Q9UM73 19-1620 L1196M) above, with M1178L counted along it

`CCNc1cc(Nc2ccc(P3(=O)CCN(C4CC4)CC3)cc2OC)nc2[nH]cc(C(F)(F)F)c12` [Example 206, 1-cyclopropyl-4-(4-((4-(ethylamino)-3-(trifluoromethyl)-1H-pyrrolo[2,3-b]pyridin-6-yl)amino)-3-methoxyphenyl)-1,4-azaphosphinane 4-oxide]: the remaining binding at 1 µM at CLK2 was found to be 3.1%; at CLK3 it was 91%; on ALK (L1196M), 23%; at DYRK1B, 0%; at MYLK, 3%; at ALK, 9%. For the same compound, the remaining binding at 1 µM at DYRK2 stood at 45%.

Usually GI50 stands for the concentration that inhibits growth by half. Low readings indicate greater sensitivity of the cells, high ones lower sensitivity of the cells. Turning to `CNc1cc(Nc2ccc(S(=O)(=O)N3CCC(N4CCOCC4)CC3)cc2OC)nc2[nH]cc(C(F)(F)F)c12` [Example 184, N^6-(2-methoxy-4-((4-morpholinopiperidin-1-yl)sulfonyl)phenyl)-N^4-methyl-3-(trifluoromethyl)-1H-pyrrolo[2,3-b]pyridine-4,6-diamine], the GI50 in the experiment with SHP-77 fell in the range of 101 to 300 nM. In addition, the remaining binding at 1 µM on CLK2 came out at 0.3%; at CLK3, 7.8%; at ALK (L1196M) it was 23%; at DYRK1B, 13%; at MYLK, 8%; at ALK it was 15%. On DYRK2, this compound came in with a remaining binding at 1 µM of 14%.

With `CNc1cc(Nc2ccc(P3(=O)CCN(C4CC4)CC3)cc2OC)nc2[nH]cc(C(F)(F)F)c12` [Example 205, 1-cyclopropyl-4-(3-methoxy-4-((4-(methylamino)-3-(trifluoromethyl)-1H-pyrrolo[2,3-b]pyridin-6-yl)amino)phenyl)-1,4-azaphosphinane 4-oxide], the remaining binding at 1 µM at CLK2 amounted to 0.15%; on CLK3, 37%; at ALK (L1196M), 1.6%; at DYRK1B, 2.5%; at MYLK it was 0%; at ALK it was 1.4%. For the same compound, the remaining binding at 1 µM on DYRK2 was found to be 28%.

Regarding `CNc1cc(Nc2ccc(C(=O)N3CC[C@H](N4CCOCC4)C3)c3c2OCC3)nc2[nH]cc(C(F)(F)F)c12` [Example 217, (S)-(7-((4-(methylamino)-3-(trifluoromethyl)-1H-pyrrolo[2,3-b]pyridin-6-yl)amino)-2,3-dihydrobenzofuran-4-yl)(3-morpholinopyrrolidin-1-yl)methanone], the remaining binding at 1 µM was 0.55% on CLK2; 19% at CLK3; 18% at ALK (L1196M); 1.4% on DYRK1B; 1.8% at MYLK; 3.8% at ALK. The compound further gave a remaining binding at 1 µM on DYRK2 of 9.7%.

Take `CCCNc1cc(Nc2ccc(C(=O)N3CCC(N4CCOCC4)CC3)c3c2OCCO3)nc2[nH]cc(C(F)(F)F)c12` [Example 162, (4-morpholinopiperidin-1-yl)(8-((4-(propylamino)-3-(trifluoromethyl)-1H-pyrrolo[2,3-b]pyridin-6-yl)amino)-2,3-dihydrobenzo[b] [1,4]dioxin-5-yl)methanone]: the remaining binding at 1 µM on CLK2 was found to be 0.65%; on CLK3 it was 13%; on ALK (L1196M), 1.3%; at DYRK1B, 0%; at MYLK, 0%; on ALK, 0.65%. The same compound had a remaining binding at 1 µM at DYRK2 of 20%.

Turning to `O=C(c1ccc(Nc2cc(C3CC3)c3c(C(F)(F)F)c[nH]c3n2)c2c1OCCO2)N1CCC(N2CCOCC2)CC1` [Example 221, (8-((4-cyclopropyl-3-(trifluoromethyl)-1H-pyrrolo[2,3-b]pyridin-6-yl)amino)-2,3-dihydrobenzo [b] [1,4]dioxin-5-yl)(4-morpholinopiperidin-1-yl)methanone], the remaining binding at 1 µM is 8.2% at CLK2; 60% at CLK3; 28% at ALK (L1196M); 0.45% at DYRK1B; 30% on MYLK; 17% at ALK. Also, the remaining binding at 1 µM at DYRK2 stood at 18%.

Regarding `CCNc1cc(Nc2ccc(P3(=O)CCN(C(C)=O)CC3)cc2OC)nc2[nH]cc(C(F)(F)F)c12` [Example 42, 1-(4-(4-((4-(ethylamino)-3-(trifluoromethyl)-1H-pyrrolo[2,3-b]pyridin-6-yl)amino)-3-methoxyphenyl)-4-oxido-1,4-azaphosphinan-1-yl)ethan-1-one], the GI50 in the experiment on SHP-77 lay within 301 to 1000 nM. The inhibition at 0.5 µM came out at 48.3% in the experiment with IL-6 and 35.7% in the experiment with TNF-α.

Regarding `O=C(c1ccc(Nc2cc(C3CC3)c3c(C(F)(F)F)c[nH]c3n2)c2c1CCO2)N1CC[C@@H](N2CCOCC2)C1` [Example 238, (R)-(7-((4-cyclopropyl-3-(trifluoromethyl)-1H-pyrrolo[2,3-b]pyridin-6-yl)amino)-2,3-dihydrobenzofuran-4-yl)(3-morpholinopyrrolidin-1-yl)methanone], the remaining binding at 1 µM on CLK2 is 0.25%; at CLK3, 56%; on ALK (L1196M) it was 58%; at DYRK1B, 0.7%; on MYLK it was 33%; on ALK it was 67%. The remaining binding at 1 µM on DYRK2 came out at 89%.

In the case of `CNc1cc(Nc2ccc(C(=O)N3CCC(N4CCOCC4)CC3)c3c2OCCO3)nc2[nH]cc(C(F)(F)F)c12` [Example 160, (8-((4-(methylamino)-3-(trifluoromethyl)-1H-pyrrolo[2,3-b]pyridin-6-yl)amino)-2,3-dihydrobenzo [b] [1,4]dioxin-5-yl)(4-morpholinopiperidin-1-yl)methanone], the remaining binding at 1 µM worked out at 0.65% at CLK2; 13% on CLK3; 1.3% at ALK (L1196M); 0% on DYRK1B; 0% at MYLK; 0.65% at ALK. Further, at DYRK2, the remaining binding at 1 µM worked out at 20%.

As to `O=C(c1ccc(Nc2cc(C3CC3)c3c(C(F)(F)F)c[nH]c3n2)c2c1CCO2)N1CC[C@H](N2CCOCC2)C1` [Example 237, (S)-(7-((4-cyclopropyl-3-(trifluoromethyl)-1H-pyrrolo[2,3-b]pyridin-6-yl)amino)-2,3-dihydrobenzofuran-4-yl)(3-morpholinopyrrolidin-1-yl)methanone], the remaining binding at 1 µM at CLK2 was found to be 0%; at CLK3, 58%; on ALK (L1196M), 15%; at DYRK1B, 1.4%; at MYLK it was 15%; at ALK, 14%. This compound also came in with a remaining binding at 1 µM on DYRK2 of 62%.

In the experiment on SHP-77, `CNc1cc(Nc2ccc(S(=O)(=O)N3CCC(N4CCOCC4)CC3)c3c2OCCO3)nc2[nH]cc(C(F)(F)F)c12` [Example 233, N^4-methyl-N^6-(8-((4-morpholinopiperidin-1-yl)sulfonyl)-2,3-dihydrobenzo [b] [1,4]dioxin-5-yl)-3-(trifluoromethyl)-1H-pyrrolo[2,3-b]pyridine-4,6-diamine] displayed a GI50 of 301 to 1000 nM. For the same compound, the inhibition at 0.5 µM in the experiment on IL-6 is 4.3%; with TNF-α it was 12.5%.
